Measured values as given in patent US12495798B2, “Nicotinamide compound and herbicidal composition comprising compound” (KOREA RESEARCH INSTITUTE OF CHEMICAL TECHNOLOGY, priority 2019, dated 2025).

Legend:
Assay type in all cases: in vivo
sorghum = experiment: Herbicidal activity test against upland field weeds (foliar treatment test); set-up: key to Foliar treatment herbicidal activity, Sorghum: 0 (no control); 100 (complete control); details: 50 g ai/ha, scale 0-100; for plant injury at 50 g/ha: Sorghum
How it was run: (§1)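 Weeds were raised from seed or rootstocks in horticultural soil in a greenhouse (30±5° C., 14/10 h light/dark), then foliage was hand-sprayed with compound at 50 or 75 g a.i./ha in 50% acetone with 0.1% Tween-20. Control was scored visually 0–100 against untreated plants after 14 days, or 21 if needed.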

barnyard grass = experiment: as above; set-up: key to Foliar treatment herbicidal activity, barnyard grass: 0 (no control); 100 (complete control); details: 50 g ai/ha, scale 0-100; for pest or weed control at 50 g/ha: Echinochloa crus-galli
How it was run: as §1

quack grass = experiment: as above; set-up: key to Foliar treatment herbicidal activity, quack grass: 0 (no control); 100 (complete control); details: 50 g ai/ha, scale 0-100
How it was run: as §1

crabgrass = experiment: as above; details: 50 g ai/ha, scale 0-100; for pest or weed control at 50 g/ha: Digitaria sanguinalis
How it was run: as §1

fall panicum = experiment: as above; details: 50 g ai/ha, scale 0-100; for pest or weed control at 50 g/ha: Panicum dichotomiflorum
How it was run: as §1

black nightshade = experiment: as above; set-up: key to Foliar treatment herbicidal activity, black nightshade: 0 (no control); 100 (complete control); details: 50 g ai/ha, scale 0-100
How it was run: as §1

indian jointvetch = experiment: as above; set-up: key to Foliar treatment herbicidal activity, Indian jointvetch: 0 (no control); 100 (complete control); details: 50 g ai/ha, scale 0-100
How it was run: as §1

velvetleaf = experiment: as above; set-up: key to Foliar treatment herbicidal activity, velvet leaf: 0 (no control); 100 (complete control); details: 50 g ai/ha; for Foliar treatment herbicidal activity, velvet leaf: scale 0-100; for pest or weed control at 50 g/ha: Abutilon theophrasti, scale 0-100, read-out: Foliar treatment herbicidal activity, velvet leaf
How it was run: as §1

cocklebur = experiment: as above; details: 50 g ai/ha, scale 0-100; for pest or weed control at 50 g/ha: Xanthium strumarium
How it was run: as §1

bindweed = experiment: as above; details: 50 g ai/ha, scale 0-100
How it was run: as §1

corn = experiment: Phytotoxicity test for upland field crops (foliar treatment test); set-up: key: 0 (no harm); 9 (complete withered)
Description: (§2) Experimental Example 3: Phytotoxicity Test for Upland Field Crops (Foliar Treatment Test)
(§3) Foliar treatment was performed for grown crops and weeds in a square plastic pot having a surface area of 50 cm^2 filled with horticultural soil. As a fertilizer per pot, 0.5 g of horticultural mixed fertilizer (N:P:K=17:21:17) was treated by mixing in the upper soil. Five kinds of crops such as rice, wheat, corn, soybean, and cotton were sown in each pot, and after growing for a certain period in greenhouse conditions (average temperature 30±5° C., light/dark=14/10 hours), test compound solutions were made by diluting with the diluent (33% acetone, 0.1% Tween-20) so that the final treatment amount of the test compounds was 19˜300 g a.i./ha. The prepared test compound solutions were treated using a spray booth (SB6-016) at a treatment amount of 100 ml per 1 m^2 of treatment area. The treated plants were managed under the same greenhouse conditions as above, and external symptoms and phytotoxicity were investigated 7 and 14 days after treatment (after 21 days if necessary). In the evaluation of the phytotoxicity for the crop, the grade of 0 (no harm) to 9 (complete withered) was used. The results of Table 9 were obtained by evaluating crop phytotoxicity value to the untreated control.

wheat = experiment: as above; set-up: key: 0 (no harm); 9 (complete withered)
Description: as §2, §3

[1] = 50 g ai/ha, Corn (7 days after treatment)
[2] = 50 g ai/ha, Corn (14 days after treatment)
[3] = 100 g ai/ha, Corn (7 days after treatment)
[4] = 100 g ai/ha, Corn (14 days after treatment)
[5] = 50 g ai/ha, Wheat (7 days after treatment)
[6] = 50 g ai/ha, Wheat (14 days after treatment)
[7] = 100 g ai/ha, Wheat (7 days after treatment)
[8] = 100 g ai/ha, Wheat (14 days after treatment)

| Compound | Foliar treatment herbicidal activity, barnyard grass (barnyard grass) | Foliar treatment herbicidal activity, quack grass (quack grass) | Foliar treatment herbicidal activity, black nightshade (black nightshade) | Foliar treatment herbicidal activity, Indian jointvetch (indian jointvetch) | Foliar treatment phytotoxicity, Corn (corn; [1]) | Foliar treatment phytotoxicity, Corn (corn; [2]) | Foliar treatment phytotoxicity, Corn (corn; [3]) | Foliar treatment phytotoxicity, Corn (corn; [4]) | Foliar treatment phytotoxicity, Wheat (wheat; [5]) | Foliar treatment phytotoxicity, Wheat (wheat; [6]) | Foliar treatment phytotoxicity, Wheat (wheat; [7]) | Foliar treatment phytotoxicity, Wheat (wheat; [8]) | plant injury at 50 g/ha (sorghum) | pest or weed control at 50 g/ha (barnyard grass) | pest or weed control at 50 g/ha (crabgrass) | pest or weed control at 50 g/ha (fall panicum) | pest or weed control at 50 g/ha (indian jointvetch) | pest or weed control at 50 g/ha (velvetleaf) | pest or weed control at 50 g/ha (cocklebur) | pest or weed control at 50 g/ha (bindweed) | other results |
| --- | --- | --- | --- | --- | --- | --- | --- | --- | --- | --- | --- | --- | --- | --- | --- | --- | --- | --- | --- | --- | --- |
| C#CCn1nnnc1NC(=O)c1ccc(C(F)(F)F)nc1COCc1nc(C(F)(F)F)n(C)n1 [Compound No. 2-122] | 50 | 30 | 95 | 70 | 0 | 0 | 0 | 0 | 0 | 0 | 0 | 0 | – | – | – | – | – | – | – | – | Foliar treatment herbicidal activity, Sorghum (sorghum): 0; Foliar treatment herbicidal activity, Crabgrass (crabgrass): 20; Foliar treatment herbicidal activity, Fall panicum (fall panicum): 40; Foliar treatment herbicidal activity, velvet leaf (velvetleaf): 50; Foliar treatment herbicidal activity, Cocklebur (cocklebur): 80; Foliar treatment herbicidal activity, Bindweed (bindweed): 70 |
| C=CCn1nnnc1NC(=O)c1ccc(C(F)(F)F)nc1COCc1nc(C(F)F)n(C)n1 [Compound No. 2-125, N-(1-allyl-1H-tetrazol-5-yl)-2-(((5-(difluoromethyl)-1-methyl-1H-1,2,4-triazol-3-yl)methoxy)methyl)-6-(trifluoromethyl)nicotinamide] | – | – | – | – | 0 | 0 | 1 | 1 | 0 | 0 | 0 | 0 | 30% | 60% | 95% | 90% | 60% | 40% | 80% | 95% | pest or weed control at 50 g/ha (quack grass): 40%; pest or weed control at 50 g/ha (black nightshade; Solanum nigrum): 95% |
| CCCn1nnnc1NC(=O)c1ccc(C(F)(F)F)nc1COCc1nc(C(F)(F)F)n(C)n1 [Compound No. 2-120, 2-(((1-methyl-5-(trifluoromethyl)-1H-1,2,4-triazol-3-yl)methoxy)methyl)-N-(1-propyl-1H-tetrazol-5-yl)-6-(trifluoromethyl)nicotinamide] | – | – | 100 | – | 0 | 0 | 0 | 0 | 0 | 0 | 0 | 0 | 10% | 80% | 95% | 90% | 60% | 80% | 90% | 50% | pest or weed control at 50 g/ha (quack grass): 10% |
| C=CCn1nnnc1NC(=O)c1ccc(C(F)(F)F)nc1COCc1ncn(C)n1 [Compound No. 2-115, N-(1-allyl-1H-tetrazol-5-yl)-2-(((1-methyl-1H-1,2,4-triazol-3-yl)methoxy)methyl)-6-(trifluoromethyl)nicotinamide] | 0 | 0 | 100 | 0 | 0 | 0 | 0 | 0 | 0 | 0 | 0 | 0 | 10% | – | 20% | 50% | – | 50% | 90% | 80% | – |
| Cn1nc(COCc2nc(C(F)(F)F)ccc2C(=O)Nc2nnnn2C)nc1I [Compound No. 2-137] | 95 | 0 | 100 | 100 | 0 | 0 | 0 | 0 | 0 | 0 | 0 | 0 | – | – | – | – | – | – | – | – | Foliar treatment herbicidal activity, Sorghum (sorghum): 60; Foliar treatment herbicidal activity, Crabgrass (crabgrass): 95; Foliar treatment herbicidal activity, Fall panicum (fall panicum): 50; Foliar treatment herbicidal activity, velvet leaf (velvetleaf): 100; Foliar treatment herbicidal activity, Cocklebur (cocklebur): 98; Foliar treatment herbicidal activity, Bindweed (bindweed): 70 |
| C=CCn1nnnc1NC(=O)c1ccc(C(F)(F)F)nc1COCc1nnn(CC)n1 [Compound No. 2-90, N-(1-allyl-1H-tetrazol-5-yl)-2-(((2-ethyl-2H-tetrazol-5-yl)methoxy)methyl)-6-(trifluoromethyl)nicotinamide] | – | 0 | 100 | – | 0 | 0 | 0 | 0 | 0 | 0 | 0 | 0 | 20% | 98% | 70% | 60% | 80% | 98% | 70% | 70% | – |
